Results on ten compounds are retold here after patent US7199136B2, “1,4-dihydro-1,4-diphenylpyridine derivatives” (Bayer HealthCare AG, priority 2001, dated 2007).

One assay concerns the target T1, human neutrophil elastase (HNE) (Homo sapiens, UniProt P08246).
T1 construct: purchased SERVA Electrophoresis GmbH, Heidelberg, Germany #20927.01
T1 sequence (P08246 30-267): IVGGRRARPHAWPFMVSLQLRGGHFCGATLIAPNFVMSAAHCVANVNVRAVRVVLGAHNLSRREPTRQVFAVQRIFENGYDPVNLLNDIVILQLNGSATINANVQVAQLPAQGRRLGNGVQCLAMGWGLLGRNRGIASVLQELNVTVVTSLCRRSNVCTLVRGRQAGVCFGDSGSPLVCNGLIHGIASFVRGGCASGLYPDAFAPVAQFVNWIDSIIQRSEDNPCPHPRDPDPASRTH
Kind of assay: In vitro inhibition of HNE using a fluorogenic peptide substrate (MeOSuc-Ala-Ala-Pro-Val-AMC), 384 MTP format. It is filed as biochemical. The following applies: 37° C. As to the method: I. In Vitro Assays of Human Neutrophil Elastase (HNE)
The test solution is prepared by mixing 10 μl of test compound dilution, 20 μl of HNE enzyme dilution (final concentration 8–0.4 μU/ml, routinely 2.1 μU/ml) and 20 μl of substrate dilution (final concentration 1 mM–1 μM, routinely 20 μM), respectively. The solution is incubated for 0–2 hrs at 37° C. (routinely one hour). The fluorescence of the liberated AMC due to the enzymatic reaction is measured at 37° C. (TECAN spectra fluor plus plate reader). […] IC50 values are determined by RFU-versus-[I] plots. Km and Km(app.) values are determined by Lineweaver-Burk plots and converted to Ki values by Dixon plots.
As a reminder, the IC50 is the point on the concentration scale where inhibition reaches its midpoint. For the compound `CCOC(=O)C1=CN(c2cccc(C(F)(F)F)c2)C(C)=C(C(C)=O)C1c1ccc(C#N)cc1` (racemic) [Example 8, (±)-Ethyl 5-acetyl-4-(4-cyanophenyl)-6-methyl-1-[3-(trifluoromethyl)phenyl]-1,4-dihydro-3-pyridinecarboxylate], the IC50 was determined as 330 nM.

As to `CCOC(=O)C1=C(C)N(c2cccc(C(F)(F)F)c2)C(C)=C(C(C)=O)C1c1ccc(C#N)cc1` (racemic) [Example 10, (±)-Ethyl 5-acetyl-4-(4-cyanophenyl)-2,6-dimethyl-1-[3-(trifluoromethyl)phenyl]-1,4-dihydro-3-pyridinecarboxylate], the 50% inhibitory concentration (IC50) is 230 nM.

In turn, `CCOC(=O)C1=C(N)N(c2cccc(C)c2)C(C)=C(C(C)=O)C1c1ccc(C#N)cc1` (stereo not shown) [Example 12, Ethyl 5-acetyl-2-amino-4-(4-cyanophenyl)-6-methyl-1-[3-methylphenyl]-1,4-di-hydro-3-pyridinecarboxylate] came in with an IC50 of 180 nM.

Turning to `CC(=O)C1=C(C)N(c2cccc(C(F)(F)F)c2)C(N)=C(C(N)=O)C1c1ccc(C#N)cc1` (stereo not shown) [Example 13, 5-Acetyl-2-amino-4-(4-cyanophenyl)-6-methyl-1-[3-(trifluoromethyl)phenyl]-1,4-dihydro-3-pyridinecarboxamide], the IC50 was found to be 30 nM.

The compound `CC(=O)C1=C(C)N(c2cccc(C(F)(F)F)c2)C(=N)C(C(=O)N(C)C)C1c1ccc(C#N)cc1` (stereo not shown) [Example 14, 5-Acetyl-4-(4-cyanophenyl)-2-imino-N,N,6-trimethyl-1-[3-(trifluoromethyl)phenyl]-1,2,3,4-tetrahydro-3-pyridinecarboxamide] yielded an IC50 of 20 nM.

In turn, `CC(=O)C1=C(C)N(c2cccc(C(F)(F)F)c2)C(N)=C(C#N)C1c1ccc(C#N)cc1` (stereo not shown) [Example 15, 5-Acetyl-2-amino-4-(4-cyanophenyl)-6-methyl-1-[3-(trifluoromethyl)phenyl]-1,4-dihydro-3-pyridinecarbonitrile] returned a concentration for half-maximal inhibition (IC50) of 120 nM.

Compound `CCOC(=O)C1=C(N)N(c2cccc(CN(CC)CC)c2)C(C)=C(C(C)=O)C1c1ccc(C#N)cc1` (stereo not shown) [Example 17, Ethyl 5-acetyl-2-amino-4-(4-cyanophenyl)-1-{3-[(diethylamino)methyl]phenyl}-6-methyl-1,4-dihydro-3-pyridinecarboxylate] had an IC50 of 9000 nM.

In the case of `CCOC(=O)C1=C(N)N(c2cc(OC)cc(C(F)(F)F)c2)C(C)=C(C(C)=O)C1c1ccc(C#N)cc1` (stereo not shown) [Example 18, Ethyl 5-acetyl-2-amino-4-(4-cyanophenyl)-1-[3-methoxy-5-(trifluoromethyl)phenyl]-6-methyl-1,4-dihydro-3-pyridinecarboxylate], the IC50 was 30 nM.

Another assay concerns human polymorphonuclear cells (PMNs). Description: In vitro PMN elastolysis assay (tritiated elastin). Type of assay: cell-based. As to conditions: at 1.2 μM; n=3 different donors at 3.6×10^5 cells per well; 4 hours at 37° C. As to the method:
II. In Vitro PMN Elastolysis Assay
This assay is used to determine the elastolytic potential of human polymorphonuclear cells (PMNs) and assess the proportion of degradation due to neutrophil elastase [cf. Z. W. She et al., Am. J. Respir. Cell. Mol. Biol. 9, 386–392 (1993)].
Tritiated elastin, in suspension, is coated on to a 96 well plate at 10 μg per well. Test and reference [ZD-0892 (J. Med. Chem. 40, 1876–1885, 3173–3181 (1997), WO 95/21855) and α1 protease inhibitor (α1PI)] compounds are added to the wells at the appropriate concentrations. Human PMNs are separated from peripheral venous blood of healthy donors and resuspended in culture media. […] Porcine pancreatic elastase (1.3 μM is used as a positive control for the assay, and α1PI (1.2 μM) is used as the positive inhibitor of neutrophil elastase. The cellular control is PMNs without compound at each appropriate cell density. The cells plus compounds are incubated in a humidified incubator at 37° C. for 4 hours. The plates are centrifuged to allow the harvest of cell supernatant only. The supernatant is transferred in 75 μl volumes to corresponding wells of a 96 well Lumaplate™ (solid scintillant containing plates). The plates are dried until no liquid is visible in the wells and read in a beta counter for 3 minutes per well. […]
Turning to “α1PI: α1 protease inhibitor, used as the positive inhibitor of neutrophil elastase”, the “inhibition of 3H-elastin elastolysis (mean±s.e.m.)” value is listed as 83.46±3.97%.

The assay is the same for the next values; noted with them: n=2 different donors at 3.6×10^5 cells per well; read-out: IC50 (mean±s.e.m.) of elastolysis inhibition.
With `COc1ccc(C(=O)N[C@H](C(=O)N2CCC[C@H]2C(=O)N[C@H](C(=O)C(F)(F)F)C(C)C)C(C)C)cc1` [ZD-0892, reference compound], the IC50 came to 45.5 ± 7.75 nM.
